Read-outs that look alike come from different tables or passages of the source.
What was measured:
recombinant human PIM1 = recombinant human PIM1 (Homo sapiens (Human), UniProt P11309); assay: PIM-1 kinase activity in cell-free in vitro assay; assay type: biochemical; conditions: cell-free; for inhibition at 0.5 µM: 500 nM compound, read-out: PIM-1: % inh 500 nM
[1] = tested on: HCT-116 human colorectal carcinoma cells; assay: Cell-proliferation assay using Alamar Blue dye; assay type: cell-based; conditions: Homo sapiens;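 also: cells exposed to compound for about 4 days, then Alamar Blue added and dye fluorescence read after about 4 h, compared with medium-only control wells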
[2] = HCT-116, read-out: HCT-116 (uM), cell proliferation modulatory activity, HCT-116, first column
[3] = HCT-116, HCT-116, second column, read-out: HCT-116 (uM), cell proliferation modulatory activity

Sequence of recombinant human PIM1 (P11309 whole entry): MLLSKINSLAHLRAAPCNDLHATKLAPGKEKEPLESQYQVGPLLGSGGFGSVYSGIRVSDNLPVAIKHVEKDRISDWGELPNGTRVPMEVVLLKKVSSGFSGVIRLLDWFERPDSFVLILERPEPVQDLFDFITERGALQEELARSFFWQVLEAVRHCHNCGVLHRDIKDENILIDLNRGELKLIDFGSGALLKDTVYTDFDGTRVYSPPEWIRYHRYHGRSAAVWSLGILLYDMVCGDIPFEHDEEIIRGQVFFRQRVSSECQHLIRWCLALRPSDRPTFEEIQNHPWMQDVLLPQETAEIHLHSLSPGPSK

| inhibition at 0.5 µM (recombinant human PIM1) [%] | IC50 [1, 2] [µM] | IC50 (recombinant human PIM1) [µM] | IC50 [1, 3] [µM] | SMILES |
| --- | --- | --- | --- | --- |
| -34.7 | 10 | – | – | O=C(O)c1ccc2c(c1)nc(OCCCO)c1ccsc12 |
| -0.688 | 10 | – | – | O=C(O)c1ccc2c(c1)nc(NCCCO)c1ccsc12 |
| -49.4 | 10 | – | – | O=C(O)c1ccc2c(c1)nc(NCCO)c1ccsc12 |
| -36.6 | 10 | – | – | O=C(O)c1ccc2c(c1)nc(NCc1ccccn1)c1ccsc12 |
| -10 | 10 | – | – | O=C(O)c1ccc2c(c1)nc(NCCN1CCOCC1)c1ccsc12 |
| 71.3 | 10 | – | – | O=C(O)c1ccc2c(c1)nc(NCc1ccncc1)c1ccsc12 |
| 0.445 | 10 | – | – | COc1ccccc1Nc1nc2cc(C(=O)O)ccc2c2sccc12 |
| 6.5 | 10 | – | – | O=C(O)c1ccc2c(c1)nc(Nc1cccc(O)c1)c1ccsc12 |
| 3.88 | 10 | – | – | COc1ccc(Nc2nc3cc(C(=O)O)ccc3c3sccc23)c(OC)c1 |
| 19.9 | 10 | – | – | O=C(O)c1ccc2c(c1)nc(NCCc1ccccc1)c1ccsc12 |
| 66.7 | 10 | 0.32 | – | O=C(O)c1ccc2c(c1)nc(Nc1ccc(F)cc1)c1ccsc12 |
| -15.5 | 10 | – | – | Cc1ccccc1Nc1nc2cc(C(=O)O)ccc2c2sccc12 |
| 23.4 | 10 | – | – | COc1cccc(Nc2nc3cc(C(=O)O)ccc3c3sccc23)c1 |
| 67.2 | 10 | 0.362 | – | O=C(O)c1ccc2c(c1)nc(Nc1ccc(F)cc1F)c1ccsc12 |
| 37.4 | 10 | – | – | O=C(O)c1ccc2c(c1)nc(NC1CC1)c1ccsc12 |
| -9.95 | 10 | – | – | O=C(O)c1ccc2c(c1)nc(N1CCc3ccccc31)c1ccsc12 |

| inhibition at 0.5 µM (recombinant human PIM1) [%] | IC50 [1, 2] [µM] | IC50 (recombinant human PIM1) [µM] | IC50 [1, 3] [µM] | SMILES |
| --- | --- | --- | --- | --- |
| -2.65 | 10 | – | – | COc1ccc(Nc2nc3cc(C(=O)O)ccc3c3sccc23)cc1Cl |
| -3.12 | 10 | – | – | O=C(O)c1ccc2c(c1)nc(Nc1ccccc1O)c1ccsc12 |
| 67.4 | 10 | 0.702 | – | Fc1ccc(Nc2nc3cc(-c4nnn[nH]4)ccc3c3sccc23)cc1Cl |
| 55.7 | 10 | 0.352 | – | COc1cccc(Nc2nc3cc(-c4nnn[nH]4)ccc3c3sccc23)c1 |
| 66.4 | 10 | 0.501 | – | Clc1ccc(Nc2nc3cc(-c4nnn[nH]4)ccc3c3sccc23)cc1 |
| 25.6 | 10 | – | – | COc1ccc(Nc2nc3cc(-c4nnn[nH]4)ccc3c3sccc23)cc1Cl |
| 34 | – | – | > 10 | CCOC(=O)c1cccc(Nc2nc3cc(-c4nnn[nH]4)ccc3c3sccc23)c1 |
| 35.9 | – | – | > 10 | CC(C)c1cccc(Nc2nc3cc(-c4nnn[nH]4)ccc3c3sccc23)c1 |
| 71.6 | – | > 1.1 | 15 | c1ccc2c(c1)ncn2-c1nc2cc(-c3nnn[nH]3)ccc2c2sccc12 |
| -21.2 | – | – | > 10 | c1ccc(CNc2nc3cc(-c4nnn[nH]4)ccc3c3sccc23)cc1 |
| -46.4 | – | – | > 10 | FC(F)(F)c1cc(Nc2nc3cc(-c4nnn[nH]4)ccc3c3sccc23)ccc1Cl |
| 34.1 | – | – | > 10 | COc1cc(Nc2nc3cc(-c4nnn[nH]4)ccc3c3sccc23)ccc1C |
| 18 | – | – | > 10 | c1cc2c(Nc3ccc4c(c3)OCO4)nc3cc(-c4nnn[nH]4)ccc3c2s1 |
| 58.2 | – | 0.511 | 15 | CN(C)CCCNc1nc2cc(-c3nnn[nH]3)ccc2c2sccc12 |
| 2.12 | – | – | 6.9 | N#Cc1ccc2c(c1)nc(Nc1ccccc1)c1ccncc12 |
| -11.5 | – | – | 1.6 | CN(C)CCNc1nc2cc(C#N)ccc2c2cnccc12 |
